Test results from the supplement of paper PMC10627819.

Key:
S. aureus DSM 20231 [1] = experiment: fitness (endpoint OD595 vs no drug) (fraction); higher = more growth
In short: (§1)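 Fitness was measured as bacterial growth in 384-well plates inoculated at OD595 0.01 (30 µl, or 55 µl for S. pneumoniae). Media were TSB, LB Lennox or CY, at 37 °C. OD595 was read every 30 min for 14 h and background-subtracted against the first reading. Fitness is OD595 at the transition into stationary phase divided by the robust mean of no-drug control wells, capped at 1.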

S. aureus Newman [2] = experiment: as above
In short: as §1

B. subtilis 168 [3] = experiment: Bliss interaction score (quartile over a dose matrix) (fitness difference); higher = more antagonism (negative = synergy)
In short: (§2)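 Combination data were used to infer fitness under each single drug. Fitness is the OD595 at entry into stationary phase divided by the robust mean of the plate's no-drug wells, with a cap of 1. The Bliss score is the observed minus the expected product fitness, summarised by quartiles over technical, biological and donor/recipient replicates.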

S. aureus DSM 20231 [4] = experiment: as above
In short: as §2

S. aureus Newman [5] = experiment: as above
In short: as §2

S. pneumoniae D39V [6] = experiment: as above
In short: as §2

B. subtilis 168 [7] = experiment: fitness (endpoint OD595 vs no drug) (fraction); higher = more growth
In short: as §1

S. pneumoniae D39V [8] = experiment: as above
In short: as §1
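For Bliss interaction score (quartile over a dose matrix) in this document: first quartile when negative (synergy) and third quartile when positive (antagonism).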

CC1(C)S[C@@H]2[C@H](NC(=O)[C@H](N)c3ccc(O)cc3)C(=O)N2[C@H]1C(=O)O [Amoxicillin] + CCCCCCCCCC(=O)N[C@@H]1[C@H]([C@@H]([C@H](O[C@H]1OC2=C3C=C4C=C2OC5=C(C=C(C=C5)[C@H]([C@H]6C(=O)N[C@@H](C7=C(C(=CC(=C7)O)OC8[C@H]([C@H]([C@@H]([C@H](O8)CO)O)O)O)C9=C(C=CC(=C9)[C@H](C(=O)N6)NC(=O)[C@@H]4NC(=O)[C@@H]1C2=CC(=CC(=C2)OC2=C(C=CC(=C2)[C@H](C(=O)N[C@H](CC2=CC(=C(O3)C=C2)Cl)C(=O)N1)N)O)O)O)C(=O)O)O[C@H]1[C@@H]([C@H]([C@@H]([C@H](O1)CO)O)O)NC(=O)C)Cl)CO)O)O [Teicoplanin]
fitness, main component drawn
Details	first compound 0.0625 µg/mL	first compound 0.125 µg/mL	first compound 0.25 µg/mL
S. aureus DSM 20231 [1], partner 0.1562 µg/mL	0.575	0.408	0.199
S. aureus DSM 20231 [1], partner 0.3125 µg/mL	0.658	–	–
S. aureus DSM 20231 [1], partner 0.625 µg/mL	0.619	–	0.0287
S. aureus Newman [2], partner 0.1562 µg/mL	0.947	0.94	0.848
S. aureus Newman [2], partner 0.3125 µg/mL	0.898	0.913	0.815
S. aureus Newman [2], partner 0.625 µg/mL	0.823	0.853	0.73

fitness, one replicate, main component drawn
Details	partner 0.1562 µg/mL	partner 0.3125 µg/mL	partner 0.62 µg/mL	partner 0.625 µg/mL	partner 1.24 µg/mL	partner 2.48 µg/mL
S. aureus DSM 20231 [1], first compound 0.5 µg/mL	0.0188	0.0061	–	0.0019	–	–
S. aureus Newman [2], first compound 0.125 µg/mL	–	–	0.747	–	0.689	0.396
S. aureus Newman [2], first compound 0.25 µg/mL	–	–	0.725	–	0.785	0.491
S. aureus Newman [2], first compound 0.5 µg/mL	–	–	0.724	–	0.684	0.462

main component drawn
Details	Bliss interaction score
B. subtilis 168 [3]	-0.1
S. aureus DSM 20231 [4]	0.0453
S. aureus Newman [5]	0.0682
S. pneumoniae D39V [6]	-0.0856

CC1(C)S[C@@H]2[C@H](NC(=O)[C@H](N)c3ccc(O)cc3)C(=O)N2[C@H]1C(=O)O [Amoxicillin] + CC[C@H]1OC(=O)[C@H](C)[C@@H](O[C@H]2C[C@@](C)(OC)[C@@H](O)[C@H](C)O2)[C@H](C)[C@@H](O[C@@H]2O[C@H](C)C[C@H](N(C)C)[C@H]2O)[C@](C)(O)C[C@@H](C)CN(C)[C@H](C)[C@@H](O)[C@]1(C)O [Azithromycin]
fitness
Details	first compound 0.0625 µg/mL	first compound 0.125 µg/mL	first compound 0.25 µg/mL
S. aureus DSM 20231 [1], partner 0.125 µg/mL	0.527	–	0.0737
S. aureus DSM 20231 [1], partner 0.25 µg/mL	0.614	–	0.0516
S. aureus DSM 20231 [1], partner 0.5 µg/mL	0.277	0.108	0.0273
S. aureus Newman [2], partner 0.125 µg/mL	0.788	0.795	0.757
S. aureus Newman [2], partner 0.25 µg/mL	0.816	0.805	0.71
S. aureus Newman [2], partner 0.5 µg/mL	0.681	–	–

S. aureus DSM 20231 [1], first compound 0.5 µg/mL, one replicate
Details	fitness
partner 0.125 µg/mL	0.0165
partner 0.25 µg/mL	0.004
partner 0.5 µg/mL	0.0043

Details	Bliss interaction score
B. subtilis 168 [3]	-0.0431
S. aureus DSM 20231 [4]	-0.0724
S. aureus Newman [5]	-0.0697
S. pneumoniae D39V [6]	0.156

CC1(C)S[C@@H]2[C@H](NC(=O)[C@H](N)c3ccc(O)cc3)C(=O)N2[C@H]1C(=O)O [Amoxicillin] + O=C(N[C@H](CO)[C@H](O)c1ccc([N+](=O)[O-])cc1)C(Cl)Cl [Chloramphenicol]
fitness
Details	first compound 0.0625 µg/mL	first compound 0.125 µg/mL	first compound 0.25 µg/mL
S. aureus DSM 20231 [1], partner 0.75 µg/mL	0.446	–	0.041
S. aureus DSM 20231 [1], partner 1.5 µg/mL	0.323	0.162	0.0389
S. aureus DSM 20231 [1], partner 3 µg/mL	0.0721	0.0829	0.0294
S. aureus Newman [2], partner 0.75 µg/mL	0.724	0.718	–
S. aureus Newman [2], partner 3 µg/mL	–	0.139	–

S. aureus DSM 20231 [1], first compound 0.5 µg/mL, one replicate
Details	fitness
partner 0.75 µg/mL	0.0382
partner 1.5 µg/mL	0.005
partner 3 µg/mL	0.0307

Details	Bliss interaction score
B. subtilis 168 [3]	0.122
S. aureus DSM 20231 [4]	-0.0444
S. aureus Newman [5]	-0.108
S. pneumoniae D39V [6]	0.165

CCCCCCCCCC(=O)N[C@@H](Cc1c[nH]c2ccccc12)C(=O)N[C@H](CC(N)=O)C(=O)N[C@@H](CC(=O)O)C(=O)N[C@@H]1C(=O)NCC(=O)N[C@@H](CCCN)C(=O)N[C@@H](CC(=O)O)C(=O)N[C@H](C)C(=O)N[C@@H](CC(=O)O)C(=O)NCC(=O)N[C@H](CO)C(=O)N[C@@H]([C@H](C)CC(=O)O)C(=O)N[C@@H](CC(=O)c2ccccc2N)C(=O)O[C@@H]1C [Daptomycin] + CN[C@@H]1[C@H](O[C@H]2[C@H](O[C@H]3[C@H](O)[C@@H](O)[C@H](N=C(N)N)[C@@H](O)[C@@H]3N=C(N)N)O[C@@H](C)[C@]2(O)C=O)O[C@@H](CO)[C@H](O)[C@H]1O [Streptomycin]
fitness
Details	partner 1 µg/mL	partner 2 µg/mL	partner 4 µg/mL	partner 8 µg/mL
B. subtilis 168 [7], first compound 0.125 µg/mL	–	0.954	0.651	0.0465
B. subtilis 168 [7], first compound 0.25 µg/mL	–	0.977	–	0.0589
B. subtilis 168 [7], first compound 0.5 µg/mL	–	0.923	–	0.0321
S. aureus Newman [2], first compound 0.125 µg/mL	0.971	0.988	–	–
S. aureus Newman [2], first compound 0.25 µg/mL	0.964	0.985	–	–
S. aureus Newman [2], first compound 0.5 µg/mL	0.986	0.973	–	–
S. pneumoniae D39V [8], first compound 1 µg/mL	–	0.926	0.902	0.825
S. pneumoniae D39V [8], first compound 2 µg/mL	–	0.955	0.909	0.876
S. pneumoniae D39V [8], first compound 4 µg/mL	–	0.95	0.924	0.86

fitness, one replicate
Details	first compound 1 µg/mL	first compound 2 µg/mL	first compound 4 µg/mL
B. subtilis 168 [7], partner 2 µg/mL	0.654	–	–
B. subtilis 168 [7], partner 4 µg/mL	0.245	–	–
B. subtilis 168 [7], partner 8 µg/mL	0.0183	–	–
S. pneumoniae D39V [8], partner 16 µg/mL	0.795	0.804	0.773

Details	Bliss interaction score
B. subtilis 168 [3]	-0.0625
S. aureus DSM 20231 [4]	0.0838
S. aureus Newman [5]	0.0589
S. pneumoniae D39V [6]	0.103

CCN(CC)CCOC(=O)c1ccc(N)cc1 [Procaine] + CN(C)c1cc(NC(=O)CNC(C)(C)C)c(O)c2c1C[C@H]1C[C@H]3[C@H](N(C)C)C(O)=C(C(N)=O)C(=O)[C@@]3(O)C(O)=C1C2=O [Tigecycline]
fitness
Details	first compound 85.5 µg/mL	first compound 171 µg/mL	first compound 342 µg/mL
B. subtilis 168 [7], partner 0.039 µg/mL	0.94	0.978	0.929
B. subtilis 168 [7], partner 0.078 µg/mL	0.916	0.96	0.858
B. subtilis 168 [7], partner 0.156 µg/mL	0.895	0.909	0.856
S. aureus Newman [2], partner 0.039 µg/mL	0.955	0.965	0.928
S. aureus Newman [2], partner 0.078 µg/mL	≥ 1	0.986	0.996
S. aureus Newman [2], partner 0.156 µg/mL	≥ 1	≥ 1	0.991
S. pneumoniae D39V [8], partner 0.65 µg/mL	0.974	0.993	1
S. pneumoniae D39V [8], partner 1.3 µg/mL	0.946	0.952	0.957
S. pneumoniae D39V [8], partner 2.6 µg/mL	0.927	0.935	0.932

fitness, B. subtilis 168 [7], one replicate
Details	first compound 85.5 µg/mL	first compound 171 µg/mL	first compound 342 µg/mL
partner 0.125 µg/mL	≥ 1	0.985	0.974
partner 0.25 µg/mL	0.891	0.917	0.917
partner 0.5 µg/mL	0.913	0.916	0.905

Details	Bliss interaction score
B. subtilis 168 [3]	-0.0701
S. aureus DSM 20231 [4]	0.0953
S. aureus Newman [5]	0.0571
S. pneumoniae D39V [6]	0.0455

CCN(CC)CCOC(=O)c1ccc(N)cc1 [Procaine] + CN[C@@H]1[C@H](O[C@H]2[C@H](O[C@H]3[C@H](O)[C@@H](O)[C@H](N=C(N)N)[C@@H](O)[C@@H]3N=C(N)N)O[C@@H](C)[C@]2(O)C=O)O[C@@H](CO)[C@H](O)[C@H]1O [Streptomycin]
fitness
Details	first compound 85.5 µg/mL	first compound 171 µg/mL	first compound 342 µg/mL
B. subtilis 168 [7], partner 2 µg/mL	0.914	0.921	0.94
B. subtilis 168 [7], partner 8 µg/mL	0.0423	0.0261	0.0278
S. aureus Newman [2], partner 1 µg/mL	0.994	0.963	0.957
S. aureus Newman [2], partner 2 µg/mL	0.983	0.96	0.985
S. pneumoniae D39V [8], partner 2 µg/mL	0.985	0.988	0.933
S. pneumoniae D39V [8], partner 4 µg/mL	0.984	0.984	0.945
S. pneumoniae D39V [8], partner 8 µg/mL	0.952	0.92	0.9

S. pneumoniae D39V [8], partner 16 µg/mL, one replicate
Details	fitness
first compound 85.5 µg/mL	0.815
first compound 171 µg/mL	0.759
first compound 342 µg/mL	0.75

Details	Bliss interaction score
B. subtilis 168 [3]	-0.117
S. aureus DSM 20231 [4]	0.0982
S. aureus Newman [5]	0.0657
S. pneumoniae D39V [6]	0.0529
